Test results as given in patent publication US8455000B2, “Resorbable polymer compositions for use in medicine, dentistry, and surgery” (Syncera Inc., priority 2006, dated 2013).
Read-outs that look alike come from different tables or passages of the source.

Assays:
[1] = Retention and release of dyes from PE-PEG matrix into phosphate buffered saline; assay type: physicochemical; conditions: dye only, tube 10
Experimental: Method: C50 PE-PEG16 was blended with PLURONIC™ L44 in a ratio of 7:3 w/w as described in Example 3. Rose Bengal (100 mg) and SR24 (100 mg) were mixed with 5 g aliquots of molten PE-PEG and PE-PEG/poloxamer blend, and maintained at 110° C. with mixing until the dye was fully dissolved.
Ten small (6 ml) glass test tubes were prepared as shown in Tables 5-6, Tubes 4-7 contained 0.5 g of the PE-PEG and PE-PEG/polymer samples mixed with dye, tubes 2, 3, 8 and 9 contained 0.5 g PE-PEG and PE-PEG/polymer samples (without dye) and 10 mg of dye added separately (after the PE-PEG or blend had solidified), tubes 1 and 10 contained only the dye, as controls.
Each glass test tube was affixed to the inside of a 50 ml polypropylene centrifuge tube with a silicone adhesive. Fifty ml of phosphate buffered saline was added to each of the tubes, and they were rocked gently for six days. At appropriate time points, the concentration of dye in the buffer was measured using a spectrophotometer. The SR24 dye was measured at 516 nm, the Rose Bengal concentration was estimated from the maximal absorption λmax from 540 nm to 560 nm.

[2] = in words; cited from earlier work

## Cc1ccccc1/N=N/c1ccc(/N=N/c2c(O)ccc3ccccc23)c(C)c1 [SR24, Solvent Red 24]
[1]
  solubility in water: zero solubility
[2]
  solubility in water: negligible solubility
